The values below come from patent publication US8940783B2, “Pheophorbide-α conjugates and their uses” (Gwangju Institute of Science and Technology, priority 2012, dated 2015).

A short description of data set [1]: Fluorescence spectrometry. In kind it is physicochemical. To be noted: for fluorescence emission peak: 1 μM in MeOH; for blue shift of fluorescence emission spectra at pH 4 from those at pH 10 / intensity of fluorescence at pH 4 and pH 10 / intensity of fluorescence in 50% aqueous MeOH compared with 100% MeOH: 420 nm excitation, 6 at 1 μM; for blue shift of fluorescence emission spectra at pH 4 from those at pH 10 / intensity of fluorescence at pH 4 and pH 10: 7 at 0.3 μM; for intensity of fluorescence in 50% aqueous MeOH compared with 100% MeOH: 7 at 0.5 μM. On the procedure:
Fluorescence measurements were done using a FluoroMate FS-2. Steady-state fluorescence spectra were generally taken at 1 μM of compounds (1, 2, 6, 10, and 13) and 0.5 μM of compound 7 in MeOH. The samples were illuminated with 420 and 440 nm of light and fluorescence emission was scanned from 500 to 800 nm. Fluorescence spectra in both aqueous and organic solvent were generally taken at 1 μM of compound 6 and 0.5 μM of compound 7 in 100% MeOH and 50% aqueous MeOH by illumination with 420 nm of light. The pH profiles of fluorescence spectra were generally taken at 1 μM of compound 6 and 0.3 μM of compound 7 at pH 4 and 10 in MeOH by illumination with 420 nm of light.
To determine fluorescence quenching effect of the conjugates, the intensity of fluorescence of each compound with same concentration was analyzed using fluorescence spectrophotometer. The fluorescence emission spectrum of compounds at 1 μM (1, 2, 6, 10, and 13) and 0.5 μM (7) was obtained by excitation wavelengths (420 and 440 nm). […] Therefore, it could be speculated that the background fluorescence of the conjugates as they are administered invivo, may not be detected until internalization and cleavage of the conjugates by enzymatic attack in cancer cells are occurred so that the photoactivity of Pa and DOX may be recovered. In the case of Pa-PTX conjugate (7), fluorescence quenching effect was not observed as PTX is not a fluorophore (FIG. 3). To verify fluorescence quenching due to a close contact effect, spectral comparison of fluorescence emission of compounds 6 (1 μM) and 7 (0.5 μM) in aqueous and organic solvent was investigated by 420 nm excitation wavelength using fluorescence spectrophotometer. In contact quenching, two molecules interact by proton-coupled electron transfer through the formation of hydrogen bonds. In aqueous solutions, electrostatic, steric and hydrophobic forces control the formation of hydrogen bonds. Therefore, the quenching efficiency of conjugates could depend on the employed solvents.

The test system of data set [2] is HeLa (cervical cancer) cells. As to the kind of experiment: SRB cell viability assay, HeLa. Format: cell-based. The note with it: 10 μM, three days. On the procedure: (§1) The AT-84 is a squamous cell carcinoma, spontaneously arising from oral mucosa and syngenic to C3H/HeJ mice (which were kindly provided by Dr. E. J. Shillitoe, State University of New York, Upstate Medical University). MCF7, KB, HCT116, PC3, U-87MG, SK-OV-3, AT-84 cells were grown in RPMI 1640. The adherent cell line HepG2, HeLa, A549, YD-10B cells were cultured in DMEM medium. Both media were supplemented with 10% FBS (Invitrogen Co.), and antibiotic-antimycotic (Invitrogen Co.). All cell lines were incubated in a humidified atmosphere containing 5% CO2 at 37° C. The adherent cells were detached from the culture flasks by removal of the growth medium and addition of 1 mL trypsin/EDTA solution (0.05% w/v trypsin, 0.016% w/v EDTA). After 1-2 min incubation at 37° C., when the cells had detached from the surface, trypsinization was stopped by the addition of 4 mL of DMEM medium containing 10% FBS. […]
(§2) A cell viability assay was conducted to test the synthesized compounds on various cancer cells including MCF7 (breast adenocarcinoma), KB (mouth carcinoma), HeLa (cervical cancer), U-87MG (glioblastoma), A549 (lung adenocarcinoma), AT-84 (oral cancer), and YD-10B (oral cancer) cells. Briefly, the cells were incubated for three days with the synthesized compounds (6, 7, 10, and 13) and the viability was measured by the protocol of SRB assay. […]

For data set [3], the system named is MCF7 (breast adenocarcinoma) cells. As to the kind of experiment: SRB cell viability assay, MCF7. In kind it is cell-based. To be noted: 10 μM, three days. On the procedure:
as §1, §2

The test system of data set [4] is AT-84 (oral cancer) cells. As to the kind of experiment: SRB cell viability assay, AT-84. Format: cell-based, mice. The note with it: AT-84 cells, 10 μM, three days. On the procedure: as §1, §2
For data set [5], the system named is U-87MG (glioblastoma) cells. As to the kind of experiment: SRB cell viability assay, U-87MG. In kind it is cell-based. To be noted: U-87MG cells, 10 μM, three days. The protocol: as §1, §2
The subject of data set [6] is various cancer cells. As to the kind of experiment: SRB cell viability assay, various cancer cells (overall comparison). In kind it is cell-based. The note with it: same concentration (10 μM), three days; 6 compared with DOX; 10 and 13 compared with Pa-DOX direct conjugate. The protocol:
The AT-84 is a squamous cell carcinoma, spontaneously arising from oral mucosa and syngenic to C3H/HeJ mice (which were kindly provided by Dr. E. J. Shillitoe, State University of New York, Upstate Medical University). MCF7, KB, HCT116, PC3, U-87MG, SK-OV-3, AT-84 cells were grown in RPMI 1640. The adherent cell line HepG2, HeLa, A549, YD-10B cells were cultured in DMEM medium. Both media were supplemented with 10% FBS (Invitrogen Co.), and antibiotic-antimycotic (Invitrogen Co.). All cell lines were incubated in a humidified atmosphere containing 5% CO2 at 37° C. The adherent cells were detached from the culture flasks by removal of the growth medium and addition of 1 mL trypsin/EDTA solution (0.05% w/v trypsin, 0.016% w/v EDTA). After 1-2 min incubation at 37° C., when the cells had detached from the surface, trypsinization was stopped by the addition of 4 mL of DMEM medium containing 10% FBS.
The cells were plated at a density of 50,000 cells/mL and well in 96-well plates and incubated with inhibitors for the time indicated. The SRB assay was carried out as described by Skehan et al. (Skehan, P. et al., J. Natl. Cancer Inst. 1990, 82, 1107). The drug incubation period of the cells was stopped by the addition of 50 μL of ice cold TCA solution into the growth medium.
A cell viability assay was conducted to test the synthesized compounds on various cancer cells including MCF7 (breast adenocarcinoma), KB (mouth carcinoma), HeLa (cervical cancer), U-87MG (glioblastoma), A549 (lung adenocarcinoma), AT-84 (oral cancer), and YD-10B (oral cancer) cells. Briefly, the cells were incubated for three days with the synthesized compounds (6, 7, 10, and 13) and the viability was measured by the protocol of SRB assay. […] The results may be interpreted with possibilities that the conjugates may suffer from entering the cells or being cleaved in the cells. Infact, the cellular uptake of the conjugates was occurred slower than Pa itself as shown in the study of Section 2.4. […]

Data set [7] has as its system KB (mouth carcinoma) cells. As to the kind of experiment: SRB cell viability assay, KB. In kind it is cell-based. The note with it: 10 μM, three days. On the procedure:
as §1, §2

For data set [8], the system named is YD-10B (oral cancer) cells. As to the kind of experiment: SRB cell viability assay, YD-10B. In kind it is cell-based. To be noted: YD-10B cells, 10 μM, three days. On the procedure: as §1, §2

As for `C=Cc1c(C)c2cc3nc(c4c5[nH]c(cc6nc(cc1[nH]2)C(C)=C6CC)c(C)c5C(=O)C4C(=O)OC)[C@@H](CCC(=O)O)[C@@H]3C` (stereo partly drawn) [Compound 1, Pheophorbide-α], the fluorescence emission peak in data set [1] (excitation 420 and 440 nm) was 665 nm.
For the compound `COc1cccc2c1C(=O)c1c(O)c3c(c(O)c1C2=O)C[C@@](O)(C(=O)CO)C[C@@H]3O[C@H]1C[C@H](N)[C@H](O)[C@H](C)O1` [Compound 2, doxorubicin, reference compound], in data set [1] (excitation 420 and 440 nm), the fluorescence emission peak is on record as 585 nm.
With `C=Cc1c(C)c2cc3nc(c4c5[nH]c(cc6nc(cc1[nH]2)C(C)=C6CC)c(C)c5C(=O)C4C(=O)OC)[C@@H](CCC(=O)NC1C[C@@H](O[C@H]2C[C@](O)(C(=O)CO)Cc4c(O)c5c(c(O)c42)C(=O)c2c(OC)cccc2C5=O)O[C@H](C)[C@@H]1O)[C@@H]3C` (stereo partly drawn) [Compound 6, Pheophorbide-α-Doxorubicin], the “inhibition of growth / cell viability” value in data set [2], in data set [3], in data set [4] and in data set [5] was “moderately inhibited” throughout. Besides, in data set [6], the “inhibitory activity of the cell viability relative to comparator” value was “lower activity than DOX itself”. In data set [1] (excitation 420 and 440 nm), this compound showed a fluorescence emission peak of 670 nm. Also, in data set [1], the “blue shift of fluorescence emission spectra at pH 4 from those at pH 10” value is “about 10 nm”. In addition, the “intensity of fluorescence at pH 4 and pH 10” value in data set [1] was “increased at pH 4 but decreased at pH 10”. The “intensity of fluorescence in 50% aqueous MeOH compared with 100% MeOH” value in data set [1] is on record as “significantly reduced”.
In the case of `C=Cc1c(C)c2cc3nc(c4c5[nH]c(cc6nc(cc1[nH]2)C(C)=C6CC)c(C)c5C(=O)C4C(=O)OC)[C@@H](CCC(=O)O[C@H](C(=O)O[C@H]1C[C@@]2(O)[C@@H](OC(=O)c4ccccc4)[C@@H]4[C@]5(OC(C)=O)CO[C@@H]5C[C@H](O)[C@@]4(C)C(=O)[C@H](OC(C)=O)C(=C1C)C2(C)C)[C@H](NC(=O)c1ccccc1)c1ccccc1)[C@@H]3C` (stereo partly drawn) [Compound 7, Pheophorbide-α-Paclitaxel], the “inhibition of growth / cell viability” value in data set [7], in data set [2], in data set [3] and in data set [8] was “potent inhibitory activity” in each case. Besides, the fluorescence quenching effect result in data set [1] (0.5 μM in MeOH, excitation 420 and 440 nm) was “not observed”. Moreover, the “blue shift of fluorescence emission spectra at pH 4 from those at pH 10” value in data set [1] is reported as “about 10 nm”. Besides, the “intensity of fluorescence at pH 4 and pH 10” value in data set [1] is “increased at pH 4 but decreased at pH 10”. For the same compound, the “intensity of fluorescence in 50% aqueous MeOH compared with 100% MeOH” value in data set [1] is on record as “significantly reduced”.
On to “Pheophorbide-α-2-hydroxycinnamic acid-doxorubicin [Compound 10]”, for which the “inhibitory activity of the cell viability relative to comparator” value in data set [6] was “generally less inhibitory activity”. The fluorescence emission peak in data set [1] (excitation 420 and 440 nm) stood at 670 nm.
For “Pheophorbide-α-4-aminobenzyl alcohol-4-nitrophenyl formate-doxorubicin [Compound 13]” the same measures were “generally less inhibitory activity” and 670 nm.
